Test results reported in PubChem BioAssay (NCI).
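Assay format: 96-well plates, 48-hour exposure. Here, GI50 denotes the concentration required for 50% inhibition of growth. The concentration for full growth arrest is given as TGI.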

Tests used:
Assay in all cases: NCI tumour cell line growth inhibition, 48 h
CAKI-1 renal = test system: CAKI-1 renal
MCF7 breast = test system: MCF7 breast
MDA-MB-435 = test system: MDA-MB-435
KM12 colon = test system: KM12 colon
NCI-H522 lung = test system: NCI-H522 lung
EKVX NSCLC = test system: EKVX NSCLC
LOX IMVI melanoma = test system: LOX IMVI melanoma
RXF 393 renal = test system: RXF 393 renal
IGROV1 ovarian = test system: IGROV1 ovarian
SNB-75 CNS = test system: SNB-75 CNS
SK-MEL-5 melanoma = test system: SK-MEL-5 melanoma
786-0 renal = test system: 786-0 renal
UACC-62 melanoma = test system: UACC-62 melanoma
BT-549 breast = test system: BT-549 breast
OVCAR-8 ovarian = test system: OVCAR-8 ovarian
SF-539 CNS = test system: SF-539 CNS
TK-10 renal = test system: TK-10 renal
NCI/ADR-RES ovarian = test system: NCI/ADR-RES ovarian
MALME-3M melanoma = test system: MALME-3M melanoma
NCI-H226 lung = test system: NCI-H226 lung
U251 CNS = test system: U251 CNS
ACHN renal = test system: ACHN renal
COLO 205 colon = test system: COLO 205 colon
SW-620 colon = test system: SW-620 colon
A498 renal = test system: A498 renal
K-562 leukemia = test system: K-562 leukemia
NCI-H23 lung = test system: NCI-H23 lung
MDA-MB-468 breast = test system: MDA-MB-468 breast
HCT-15 colon = test system: HCT-15 colon
SN12C renal = test system: SN12C renal
MDA-MB-231 breast = test system: MDA-MB-231 breast
SF-295 CNS = test system: SF-295 CNS
NCI-H460 lung = test system: NCI-H460 lung
MOLT-4 leukemia = test system: MOLT-4 leukemia
OVCAR-5 ovarian = test system: OVCAR-5 ovarian
DU-145 prostate = test system: DU-145 prostate
HL-60(TB) leukemia = test system: HL-60(TB) leukemia
SK-MEL-28 melanoma = test system: SK-MEL-28 melanoma
UO-31 renal = test system: UO-31 renal
SK-OV-3 ovarian = test system: SK-OV-3 ovarian
UACC-257 melanoma = test system: UACC-257 melanoma
OVCAR-3 ovarian = test system: OVCAR-3 ovarian
A549 NSCLC = test system: A549 NSCLC
T-47D breast = test system: T-47D breast
HS 578T breast = test system: HS 578T breast
SF-268 CNS = test system: SF-268 CNS
M14 melanoma = test system: M14 melanoma
SNB-19 CNS = test system: SNB-19 CNS
CCRF-CEM leukemia = test system: CCRF-CEM leukemia
HOP-62 NSCLC = test system: HOP-62 NSCLC
HCC-2998 colon = test system: HCC-2998 colon
PC-3 prostate = test system: PC-3 prostate
OVCAR-4 ovarian = test system: OVCAR-4 ovarian
HT29 colon = test system: HT29 colon
HOP-92 NSCLC = test system: HOP-92 NSCLC
RPMI-8226 leukemia = test system: RPMI-8226 leukemia
SR leukemia = test system: SR leukemia
SK-MEL-2 melanoma = test system: SK-MEL-2 melanoma

With `CCNCCCn1c2c(c3cc(OC)c(OC)cc3c1=O)C(=O)c1cc3c(nc1-2)OCO3` the GI50 (CAKI-1 renal) was 0.946 µM, the TGI (CAKI-1 renal) was 16.6 µM and the GI50 (MCF7 breast) was 0.0754 µM. It also gave a TGI (MCF7 breast) of 10.3 µM, a GI50 (MDA-MB-435) of 1.38 µM and a TGI (MDA-MB-435) of 2.89 µM. It also gave a GI50 (KM12 colon) of 10.4 µM, a TGI (KM12 colon) of 23.8 µM and a GI50 (NCI-H522 lung) of 0.442 µM. For the same compound, the TGI (NCI-H522 lung) was 23 µM, the GI50 (EKVX NSCLC) was 5.26 µM and the TGI (EKVX NSCLC) was 20 µM. The GI50 (LOX IMVI melanoma) was 0.487 µM, the TGI (LOX IMVI melanoma) was 1.9 µM and the GI50 (RXF 393 renal) was 1.35 µM. It also gave a TGI (RXF 393 renal) of 5.66 µM, a GI50 (IGROV1 ovarian) of 12.1 µM and a TGI (IGROV1 ovarian) of 25.7 µM. It also gave a GI50 (SNB-75 CNS) of 0.495 µM, a TGI (SNB-75 CNS) of 9.41 µM and a GI50 (SK-MEL-5 melanoma) of 0.921 µM. The TGI (SK-MEL-5 melanoma) was 2.14 µM, the GI50 (786-0 renal) was 1.39 µM and the TGI (786-0 renal) was 2.84 µM. For the same compound, the GI50 (UACC-62 melanoma) was 1.81 µM, the TGI (UACC-62 melanoma) was 15.4 µM and the GI50 (BT-549 breast) was 6.82 µM. It also gave a TGI (BT-549 breast) of 25.1 µM, a GI50 (OVCAR-8 ovarian) of 1.82 µM and a TGI (OVCAR-8 ovarian) of 12 µM. It also gave a GI50 (SF-539 CNS) of 0.675 µM, a TGI (SF-539 CNS) of 4.1 µM and a GI50 (TK-10 renal) of 17.6 µM. For the same compound, the TGI (TK-10 renal) was 33.3 µM, the GI50 (NCI/ADR-RES ovarian) was 1.56 µM and the TGI (NCI/ADR-RES ovarian) was 4.14 µM. The GI50 (MALME-3M melanoma) was 1.35 µM, the TGI (MALME-3M melanoma) was 2.76 µM and the GI50 (NCI-H226 lung) was 1.27 µM. For the same compound, the TGI (NCI-H226 lung) was 3.2 µM, the GI50 (U251 CNS) was 0.348 µM and the TGI (U251 CNS) was 14.7 µM. For the same compound, the GI50 (ACHN renal) was 0.755 µM, the TGI (ACHN renal) was 7.05 µM and the GI50 (COLO 205 colon) was 3.07 µM. For the same compound, the TGI (COLO 205 colon) was 19.6 µM, the GI50 (SW-620 colon) was 0.631 µM and the TGI (SW-620 colon) was 20.1 µM. It also gave a GI50 (A498 renal) of 9.07 µM, a TGI (A498 renal) of 23 µM and a GI50 (K-562 leukemia) of 0.483 µM. It also gave a TGI (K-562 leukemia) of 2.75 µM, a GI50 (NCI-H23 lung) of 0.324 µM and a TGI (NCI-H23 lung) of 3.76 µM. The GI50 (MDA-MB-468 breast) was 0.431 µM, the TGI (MDA-MB-468 breast) was 2.51 µM and the GI50 (HCT-15 colon) was 1.14 µM. It also gave a TGI (HCT-15 colon) of 2.54 µM, a GI50 (SN12C renal) of 4.61 µM and a TGI (SN12C renal) of 17.4 µM. The GI50 (MDA-MB-231 breast) was 1.91 µM, the TGI (MDA-MB-231 breast) was 6.14 µM and the GI50 (SF-295 CNS) was 0.23 µM. For the same compound, the TGI (SF-295 CNS) was 12.7 µM, the GI50 (NCI-H460 lung) was 0.239 µM and the TGI (NCI-H460 lung) was 1.39 µM. The GI50 (MOLT-4 leukemia) was 0.048 µM, the TGI (MOLT-4 leukemia) was 2.13 µM and the GI50 (OVCAR-5 ovarian) was 3.69 µM. For the same compound, the TGI (OVCAR-5 ovarian) was 16.5 µM, the GI50 (DU-145 prostate) was 0.548 µM and the TGI (DU-145 prostate) was 12.5 µM. For the same compound, the GI50 (HL-60(TB) leukemia) was 1.63 µM, the TGI (HL-60(TB) leukemia) was 7.5 µM and the GI50 (SK-MEL-28 melanoma) was 2.56 µM. It also gave a TGI (SK-MEL-28 melanoma) of 8.53 µM, a GI50 (UO-31 renal) of 3.09 µM and a TGI (UO-31 renal) of 16.3 µM. The GI50 (SK-OV-3 ovarian) was 1.14 µM, the TGI (SK-OV-3 ovarian) was 11.8 µM and the GI50 (UACC-257 melanoma) was 13.4 µM. It also gave a TGI (UACC-257 melanoma) of 27.7 µM, a GI50 (OVCAR-3 ovarian) of 11.9 µM and a TGI (OVCAR-3 ovarian) of 24.7 µM. It also gave a GI50 (A549 NSCLC) of 1.22 µM, a TGI (A549 NSCLC) of 18.4 µM and a GI50 (T-47D breast) of 1.06 µM. The TGI (T-47D breast) was 13.9 µM, the GI50 (HS 578T breast) was 10.4 µM and the TGI (HS 578T breast) was 29.8 µM. For the same compound, the GI50 (SF-268 CNS) was 0.85 µM, the TGI (SF-268 CNS) was 16.8 µM and the GI50 (M14 melanoma) was 1.97 µM. For the same compound, the TGI (M14 melanoma) was 12.3 µM, the GI50 (SNB-19 CNS) was 1.69 µM and the TGI (SNB-19 CNS) was 17.5 µM. The GI50 (CCRF-CEM leukemia) was 0.0351 µM, the TGI (CCRF-CEM leukemia) was 1.23 µM and the GI50 (HOP-62 NSCLC) was 0.205 µM. The TGI (HOP-62 NSCLC) was 10.2 µM, the GI50 (HCC-2998 colon) was 4.07 µM and the TGI (HCC-2998 colon) was 18.9 µM. It also gave a GI50 (PC-3 prostate) of 1.28 µM, a TGI (PC-3 prostate) of 18.9 µM and a GI50 (OVCAR-4 ovarian) of 14.2 µM. The TGI (OVCAR-4 ovarian) was 31.9 µM, the GI50 (HT29 colon) was 0.706 µM and the TGI (HT29 colon) was 16.1 µM. The GI50 (HOP-92 NSCLC) was 7.73 µM, the TGI (HOP-92 NSCLC) was 23.1 µM and the GI50 (RPMI-8226 leukemia) was 0.641 µM. For the same compound, the TGI (RPMI-8226 leukemia) was 2.97 µM, the GI50 (SR leukemia) was 0.307 µM and the TGI (SR leukemia) was 2.39 µM. It also gave a GI50 (SK-MEL-2 melanoma) greater than 100 µM and a TGI (SK-MEL-2 melanoma) greater than 100 µM.
